For two molecules, half-life results are on record in ChEMBL document CHEMBL1135314, “Synthesis of tag introducible (3-trifluoromethyl)phenyldiazirine based photoreactive phenylalanine” (Bioorg Med Chem Lett, 2002).

The series is described as follows: Half life of compound was determined. It is filed as ADME.

`N[C@@H](Cc1ccc(C2(C(F)(F)F)N=N2)cc1OCCNC(=O)CCCC[C@@H]1SC[C@@H]2NC(=O)N[C@@H]21)C(=O)O` showed a half-life of 2.6 min.

Turning to `N[C@@H](Cc1ccc(C2(C(F)(F)F)N=N2)cc1OCCOCCOCCNC(=O)CCCC[C@@H]1SC[C@@H]2NC(=O)N[C@@H]21)C(=O)O`, the half-life is 2.3 min.

The term half-life denotes the time in which the quantity being followed falls by half. A high value points to slow decline.
